Source: ChEMBL document CHEMBL5344433, “Target Separation and Potential Anticancer Activity of Withanolide-Based Glucose Transporter Protein 1 Inhibitors from Physalis angulata var. villosa” (J Nat Prod, 2024)
Activity calls are given as the source filed them. No cut-off for these calls is given here.

What was measured:
[1] = target: T1, Solute carrier family 2, facilitated glucose transporter member 1 (Homo sapiens) (UniProt P11166); experiment: Agonist activity at GLUTI (unknown origin); conditions: filed as agonist
T1 sequence (whole entry): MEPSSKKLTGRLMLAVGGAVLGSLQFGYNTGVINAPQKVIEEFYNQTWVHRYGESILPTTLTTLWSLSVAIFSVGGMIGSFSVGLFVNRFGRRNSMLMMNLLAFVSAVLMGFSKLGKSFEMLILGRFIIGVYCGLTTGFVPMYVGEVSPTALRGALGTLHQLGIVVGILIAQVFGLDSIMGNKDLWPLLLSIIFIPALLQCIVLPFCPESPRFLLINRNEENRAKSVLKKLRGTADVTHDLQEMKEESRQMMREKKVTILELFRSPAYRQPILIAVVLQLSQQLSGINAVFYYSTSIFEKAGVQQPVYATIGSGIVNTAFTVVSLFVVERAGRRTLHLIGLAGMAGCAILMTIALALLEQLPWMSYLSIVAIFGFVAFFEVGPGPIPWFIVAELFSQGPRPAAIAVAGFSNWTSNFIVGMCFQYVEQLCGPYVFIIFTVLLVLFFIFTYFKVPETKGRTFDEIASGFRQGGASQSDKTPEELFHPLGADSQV

[2] = target: T2, Solute carrier family 2, facilitated glucose transporter member 1 (Homo sapiens, UniProt P11166); experiment: Binding affinity to GLUT1 (unknown origin) assessed as dissociation constant at 800 uM by MST assay
T2 sequence (P11166 whole entry): T1 sequence (whole entry)

[3] = target: T1, Solute carrier family 2, facilitated glucose transporter member 1 (Homo sapiens); experiment: Inhibition of GLUT1 in human MCF7 cells assessed as reduction in GLUT1 degradation by CETSA assay; type: cell-based
[4] = target: T1, Solute carrier family 2, facilitated glucose transporter member 1 (Homo sapiens); experiment: Inhibition of GLUTI (unknown origin)
[5] = tested on: MCF7; experiment: Induction of cell cycle arrest in human MCF7 cells assessed as accumulation of cells at G2/M phase at 5 uM by propidium iodide staining based flow cytometry (reference value: 9.72%); type: functional; conditions: time 30 min, 0.5 h
[6] = tested on: MCF7; experiment: Induction of apoptosis in human MCF7 cells assessed as necrotic cells at 10 uM incubated for 24 hrs by Annexin V-FITC/7AAD staining based flow cytometery (reference value: 0.019%); type: functional
[7] = tested on: MCF7; experiment: Anticancer activity against human MCF7 cells assessed as increase in cell necrosis at 20 uM incubated for 48 hrs relative to control; type: functional
[8] = target: T1, Solute carrier family 2, facilitated glucose transporter member 1 (Homo sapiens); experiment: Inhibition of GLUT1 in human MCF7 cells assessed as fold change at 20 uM by Western blot analysis; type: cell-based
[9] = tested on: MCF7; experiment: Induction of cell cycle arrest in human MCF7 cells assessed as accumulation of cells at G2/M phase at 20 uM by propidium iodide staining based flow cytometry (reference value: 9.72%); type: functional; conditions: time 30 min, 0.5 h
[10] = tested on: MCF7; experiment: Induction of apoptosis in human MCF7 cells assessed as viable cells at 20 uM incubated for 24 hrs by Annexin V-FITC/7AAD staining based flow cytometery (reference value: 98.8%); type: functional; conditions: read-out: Activity
[11] = tested on: MCF7; experiment: Induction of apoptosis in human MCF7 cells assessed as necrotic cells at 20 uM incubated for 24 hrs by Annexin V-FITC/7AAD staining based flow cytometery (reference value: 0.019%); type: functional
[12] = tested on: MCF7; experiment: Induction of apoptosis in human MCF7 cells assessed as necrotic cells at 5 uM incubated for 24 hrs by Annexin V-FITC/7AAD staining based flow cytometery (reference value: 0.019%); type: functional
[13] = target: T2, Solute carrier family 2, facilitated glucose transporter member 1; experiment: Inhibition of GLUT1 in human MCF7 cells assessed as ATP production incubated for 24 hrs in presence of 0.1 mM glucose; type: cell-based
[14] = tested on: MCF7; experiment: Induction of apoptosis in human MCF7 cells assessed as late apoptotic cells at 5 uM incubated for 24 hrs by Annexin V-FITC/7AAD staining based flow cytometery (reference value: 0.68%); type: functional
[15] = Cytotoxicity against human MCF7 cells assessed as reduction in cell viability incubated for 24 hrs by MTT assay; type: toxicity, cell-based
[16] = target: T1, Solute carrier family 2, facilitated glucose transporter member 1 (Homo sapiens); experiment: Inhibition of GLUT1 in human MCF7 cells assessed as fold change at 10 uM by Western blot analysis; type: cell-based
[17] = tested on: MCF7; experiment: Induction of apoptosis in human MCF7 cells assessed as viable cells at 10 uM incubated for 24 hrs by Annexin V-FITC/7AAD staining based flow cytometery (reference value: 98.8%); type: functional; conditions: read-out: Activity
[18] = tested on: MCF7; experiment: Induction of apoptosis in human MCF7 cells assessed as early apoptotic cells at 10 uM incubated for 24 hrs by Annexin V-FITC/7AAD staining based flow cytometery (reference value: 0.50%); type: functional
[19] = tested on: MCF7; experiment: Anticancer activity against human MCF7 cells assessed as increase in cell apoptosis at 20 uM incubated for 48 hrs relative to control; type: functional
[20] = tested on: MCF7; experiment: Induction of apoptosis in human MCF7 cells assessed as late apoptotic cells at 20 uM incubated for 24 hrs by Annexin V-FITC/7AAD staining based flow cytometery (reference value: 0.68%); type: functional
[21] = tested on: MCF7; experiment: Induction of apoptosis in human MCF7 cells assessed as early apoptotic cells at 20 uM incubated for 24 hrs by Annexin V-FITC/7AAD staining based flow cytometery (reference value: 0.50%); type: functional
[22] = tested on: MCF7; experiment: Induction of apoptosis in human MCF7 cells assessed as viable cells at 5 uM incubated for 24 hrs by Annexin V-FITC/7AAD staining based flow cytometery (reference value: 98.8%); type: functional; conditions: read-out: Activity
[23] = tested on: MCF7; experiment: Induction of oxidative stress in human MCF7 cells assessed as increase in intracellular ROS level at 5 to 20 uM incubated for 24 hrs; type: functional, cell-based; conditions: dose 5-20 µM
[24] = target: T1, Solute carrier family 2, facilitated glucose transporter member 1 (Homo sapiens); experiment: Inhibition of GLUT1 in human MCF7 cells assessed as decrease in extracellular acidification rate at 5 to 20 uM measured for 24 hrs by Seahorse XFe96 analyzer; type: cell-based; conditions: dose 5-20 µM
[25] = target: T1, Solute carrier family 2, facilitated glucose transporter member 1 (Homo sapiens); experiment: Inhibition of GLUT1 in human MCF7 cells assessed as fold change at 5 uM by Western blot analysis; type: cell-based
[26] = target: T2, Solute carrier family 2, facilitated glucose transporter member 1; experiment: Inhibition of GLUT1 in human MCF7 cells assessed as ATP production incubated for 24 hrs in presence of 10 mM glucose; type: cell-based
[27] = tested on: MCF7; experiment: Induction of apoptosis in human MCF7 cells assessed as late apoptotic cells at 10 uM incubated for 24 hrs by Annexin V-FITC/7AAD staining based flow cytometery (reference value: 0.68%); type: functional
[28] = tested on: MCF7; experiment: Induction of oxidative stress in human MCF7 cells assessed as fold increase in intracellular ROS level at 20 uM incubated for 24 hrs; type: functional
[29] = tested on: MCF7; experiment: Induction of cell cycle arrest in human MCF7 cells assessed as accumulation of cells at G2/M phase at 10 uM by propidium iodide staining based flow cytometry (reference value: 9.72%); type: functional; conditions: time 30 min, 0.5 h
[30] = target: T1, Solute carrier family 2, facilitated glucose transporter member 1 (Homo sapiens); experiment: Inhibition of GLUT1 in human MCF7 cells assessed as reduction in maximal respiratory capacity at 5 to 20 uM incubated for 24 hrs by Seahorse XFe96 analyzer; type: cell-based; conditions: dose 5-20 µM
[31] = target: T1, Solute carrier family 2, facilitated glucose transporter member 1 (Homo sapiens); experiment: Inhibition of GLUT1 in human MCF7 cells assessed as reduction in lactate production measured after 24 hrs; type: cell-based; conditions: dose 5-20 µM
[32] = tested on: MCF7; experiment: Induction of apoptosis in human MCF7 cells assessed as early apoptotic cells at 5 uM incubated for 24 hrs by Annexin V-FITC/7AAD staining based flow cytometery (reference value: 0.50%); type: functional
[33] = target: T1, Solute carrier family 2, facilitated glucose transporter member 1 (Homo sapiens); experiment: Inhibition of human GLUT1 in HEK293FT cells assessed as reduction in glucose uptake at 10 uM incubated for 24 hrs and further incubated for 1 hr under dark condition by flow cytometry; type: cell-based; conditions: time 25.0 hrs

For `CC(=O)O[C@H]1C=C([C@H](C)[C@H]2CC(C)=C(C)C(=O)O2)[C@@]2(C)CC[C@H]3[C@@H](C[C@H]4O[C@]45[C@@H](O)C=CC(=O)[C@]35C)[C@@]12O`, the Activity [1] was “Active”.

For `CC(=O)O[C@H]1C[C@@](O)([C@H](C)[C@H]2CC(C)=C(C)C(=O)O2)[C@@]2(C)CC[C@H]3[C@@H](C[C@H]4O[C@]45CC=CC(=O)[C@]35C)[C@@]12O`, the Activity [1] was “Active”, the Kd [2] was 2.6 µM and the inhibition [3] was “Active”.

For `CC(=O)O[C@H]1C[C@H]([C@H](C)[C@@H]2OC(=O)C(C)=C(C)[C@@H]2O)[C@@]2(C)CCC3C(C[C@@H](O)[C@@]4(O)CC=CC(=O)[C@]34C)[C@@]12O` (some centres not stated), the inhibition [4] was “Active”, the Activity [1] was “Active” and the Kd [2] was 2.4 µM. The inhibition [3] was “Active”.

With `CC(=O)O[C@H]1C[C@@](O)([C@H](C)[C@H]2CC(C)=C(C)C(=O)O2)[C@@]2(C)CC[C@H]3[C@@H](C[C@H]4O[C@]45[C@@H](O)C=CC(=O)[C@]35C)[C@@]12O` the Activity [1] was “Active”.

Work on `CC(=O)O[C@H]1[C@@H]2O[C@]2([C@H](C)[C@H]2CC(CO)=C(C)C(=O)O2)[C@@]2(C)CCC3C(C[C@@H](O)[C@@]4(O)CC=CC(=O)[C@]34C)[C@@]12O` (some centres not stated) yielded an Activity [5] of 11.3%, an Activity [6] of 4.56% and an Activity [7] of 60%. For the same compound, the fold change (FC) [8] was 0.4, the Activity [9] was 47.6% and the viability at 20 µM [10] was 24.2%. It also gave an Activity [11] of 0.92%, an Activity [12] of 3.84% and an IC50 [13] of 3.46 µM. The Kd [2] was 2.6 µM, the Activity [14] was 15% and the IC50 at 24 h [15] was 18 µM. The inhibition [3] was “Active”, the fold change (FC) [16] was 0.44 and the viability at 10 µM [17] was 34.6%. The Activity [18] was 14.1%, the Activity [19] was 15% and the Activity [20] was 60%. The Activity [21] was 14.9%, the viability at 5 µM [22] was 75.4% and the Activity [23] was “Dose-Dependent Effect”. The inhibition [24] was “Active”, the fold change (FC) [25] was 0.68 and the IC50 [26] was 180 µM. The Activity [27] was 46.7%, the “fold change (FC)” value [28] was 2.8 and the Activity [29] was 22%. For the same compound, the inhibition [30] was “Active”, the inhibition [31] was “Dose-Dependent Effect” and the Activity [32] was 5.76%. The inhibition [33] was “Active”.

With `C[C@@]12C[C@H]3OC(=O)[C@@H]1CO[C@]14O[C@@]5([C@H]2C1=O)[C@@]3(C)OC(=O)[C@@]5(O)CC[C@H]1[C@H]4C[C@H]2O[C@]23CC=CC(=O)[C@]13C` the Activity [1] was “Active”.

For `CC(=O)O[C@H]1C=C([C@H](C)[C@H]2CC(C)=C(C)C(=O)O2)[C@@]2(C)CC[C@H]3C(C[C@@H](O)[C@@]4(Cl)CC=CC(=O)[C@]34C)[C@]12O` (some centres not stated), the inhibition [4] was “Active”.
